{
  "source": "patent US9622984B1",
  "about": "“Synthesis of naringenin nanoparticles” (priority 2016, dated 2017)",
  "key": {"[1]": {"system": "Nile tilapia (Oreochromis niloticus) exposed to 5 ppm CdCl2.H2O", "assay": "Cadmium concentration in tissues by atomic absorption spectrophotometer after 21 days exposure", "assay_type": "in vivo", "conditions": "fish exposed to Cd only (5 ppm), control 205.4804±62.9 ng/g", "protocol": "(§1) Experimental design was as follows. Adult Nile tilapia, Oreochromis niloticus (n=120 fish), with an average length of 20±4 cm and weight of 150 g-200 g were procured from the local fish farm near Riyadh City. They were checked thoroughly for injury and disease conditions. After washing with 0.01% KMnO4 solution for 15 min, they were divided into five groups each comprising 20 fish and kept in glass tanks (100 L capacity) with non-chlorinated tap water. Prior to the start of the experiment, the fish were acclimated to the food and laboratory conditions with 12 hr dark and 12 hr light cycles, pH range of 6 to 8 and temperature ranging from 20° C. to 24° C. for 15 days. The exposure period was 21 days. Through the entire experimental period the fish were fed commercial pelleted diet at 2% body weight.\n(§2) The experimental groups were in replicates as follows. Group I was the negative control which contained dechlorinated tap water with no added CdCl2.H2O and without any antioxidant treatment (designated “Control” in FIGS. 9-10). […]\nCadmium concentration in tissues was determined as follows. […] The concentration of Cd in digested tissue samples were analyzed in an atomic absorption spectrophotometer.\nCadmium accumulation in liver was assessed as follows. […]"}, "HSP70": {"system": "HSP70", "assay": "HSP70 levels in gills (ELISA kit) after 21 days exposure", "assay_type": "in vivo, Oreochromis niloticus", "conditions": "fish exposed to Cd only (5 ppm), control 152.8800±11.81554 pg/g", "protocol": "as §1, §2\nBiochemical analysis was performed as follows. A quantitation of MDA levels in the liver (lipid peroxides) was done by a high performance liquid chromatographic (HPLC) method. […] The levels of hepatic metalothionein levels (MT-2) and HSP70 in […] were also assessed using commercial ELISA kits.\nHeat shock protein (HSP70) in gills was determined as follows. […]"}},
  "data": [
    {"compound": "O.[Cd+2].[Cl-].[Cl-]", "note": "[Cd, CdCl2.H2O]", "values": [
      {"measurement": "Cd concentration in the liver", "setting": "[1]", "value": "1113.3320 ± 48.39", "unit": "ng/g"},
      {"measurement": "HSP70 concentration in gills", "setting": "HSP70", "value": "251.6600 ± 19.36", "unit": "pg/g"}
    ]}
  ]
}
